In US20090023186A1, “USE OF VALPROIC ACID FOR ENHANCING PRODUCTION OF RECOMBINANT PROTEINS IN MAMMALIAN CELLS” (EXCELLGENE SA, priority 2007, published 2009):

Columns and labels:
HEK293E cells [1] = test: Influence of temperature on IgG batch titer and comparison with sodium butyrate (Example 2); format: cell-based, Human; conditions: 3 mmol/l sodium butyrate; relative to control = 1; day 5 after transfection
Protocol: (§1) No. 14571C-[…]; Lot No. 6A0093; SAFC Biosciences, Lenexa, Kans., USA, “Ex-Cell” medium; note: “Ex-Cell” medium-as used herein-refers to a medium comprising 4 mmol/l L-glutamine) in a 50-ml filter tube each (TPP AG, Trasadingen, Switzerland; Cat. No. 87050, Lot 20050174). In a separate set, 10 million suspension-adapted CHO DG44 cells were resuspended in 0.5 ml of ProCHO5 serum-free medium with 4 mmol/[…] hypoxanthine and 0.194 g/l thymidine (BioWhittaker (Lonza), Belgium; Cat. No. BE12-[…]; Lot No. 7 MB0040; “ProCHO5” medium; note: “ProCHO5” medium-as used herein-refers to a medium comprising 4 mmol/[…] hypoxanthine and 0.194 g/l thymidine) in a 50-ml filter tube each (TPP AG, Trasadingen, Switzerland; Cat. No. 87050, Lot 20050174). Then 12.5 μg plasmid DNA at a concentration of 1 μg/μl was added in each tube with the following composition 50% (6.25 μg) p-LC (SEQ ID NO: 1) 50% (6.25 μg) p-HC (SEQ ID NO: 3). Plasmid p-LC comprises the genetic information for the production of the light chain of an IgG antibody, plasmid p-HC comprises the genetic information for the production of the heavy chain of an IgG antibody. The particular vector constructs used in the present invention can also be obtained from the inventors. The inventors can be contacted via e-mail at […]. Moreover, commercial services do exist that produce any desired nucleotide sequence even comprising several kilobase pairs including complete expression cassettes in plasmid backgrounds (e.g., Invitrogen, Carlsbad, USA; Geneart, Germany.) Thus, providing the genetic sequence information of the plasmids should enable one of ordinary skill in the art to order the plasmids of the present invention at one of the commercial services listed. After shortly mixing the DNA with the cells by gentle shaking, 25 μg of 25-kd linear polyethyleneimine (“PEI”; Polysciences, Eppelheim, Germany; [2]) were added at a concentration of 1 μg/μl to each of the tubes. After shortly mixing by gentle shaking, the filter tubes containing the cells together with the DNA and PEI were transferred into an orbital shaker (Kühner Shaker Cabinet ISF-4-W, “Kühner shaker”, Kühner AG, Birsfelden, Switzerland), and the cells were incubated for 4 hours at 37° C. in a 5% CO2 atmosphere under shaking at 180 rpm. After that time, 4.5 ml of Ex-Cell medium were added to each of the filter tubes containing HEK 293 cells and 4.5 ml of Pro-CHO5 were added to each of the filter tubes containing CHO DG44 cells. […] No. […] Sigma-Aldrich Chemie GmbH, Industriestrasse 25, CH-9471 Buchs SG) was added to the corresponding tubes at the corresponding final concentrations. The cells then were returned into the Kühner shaker. Half the tubes were incubated at 37° C. in a 5% CO2 atmosphere under shaking at 180 rpm, the other half was incubated at 31° C. […] The ELISA was performed as published in prior art. In short, Goat anti-human kappa light chain IgG (Biosource) was used for coating the ELISA-plates, and with AP-conjugated goat anti-human gamma chain IgG (Biosource) the synthesized IgG1 was detected. NPP was used as a substrate for the alkaline phosphatase. Absorption was measured at 405 nm against 490 nm using a microplate reader (SPECTRAmaxTM340; Molecular Devices, Palo Alto, Calif., USA).

CHO DG44 cells [2] = test: as above; format: cell-based, Chinese Hamster; conditions: 3 mmol/l sodium butyrate; relative to control = 1; day 5 after transfection
Protocol: as §1

HEK293E cells [3] = test: Preferred embodiment: transient IgG expression with p18 and p21 co-transfection, batch titer by ELISA; format: cell-based, Human
Protocol: 20 million suspension-adapted HEK293E cells were resuspended in 1 ml of Ex-Cell 293 HEK 293 serum-free medium with 4 mmol/l L-glutamine (Cat. No. 14571C-[…]; Lot No. 6A0093; SAFC Biosciences, Lenexa, Kans., USA, “Ex-Cell” medium; note: “Ex-Cell” medium-as used herein-refers to a medium comprising 4 mmol/l L-glutamine) in a 50-ml filter tube each (TPP AG, Trasadingen, Switzerland; Cat. No. 87050, Lot 20050174). Then 50 μg plasmid DNA at a concentration of 1 μg/μl was added in each tube with the following composition […] Plasmid p-LC comprises the genetic information for the production of the light chain of an IgG antibody, plasmid p-HC comprises the genetic information for the production of the heavy chain of an IgG antibody, plasmid p-p18 comprises the genetic information for the protein p18, and plasmid p-p21 comprises the genetic information for the protein p21. The particular vector constructs used in the present invention can also be obtained from the inventors. The inventors can be contacted via e-mail at […]. Moreover, commercial services do exist that produce any desired nucleotide sequence even comprising several kilobase pairs including complete expression cassettes in plasmid backgrounds (e.g., Invitrogen, Carlsbad, USA; Geneart, Germany.) Thus, providing the genetic sequence information of the plasmids should enable one of ordinary skill in the art to order the plasmids of the present invention at one of the commercial services listed. After shortly mixing the DNA with the cells by gentle shaking, 100 μg of 25-kd linear polyethyleneimine (“PEI”; Polysciences, Eppelheim, Germany; [2]) were added at a concentration of 1 μg/μl to each of the tubes. After shortly mixing by gentle shaking, the filter tubes containing the cells together with the DNA and PEI were transferred into an orbital shaker (Kühner Shaker Cabinet ISF-4-W, “Kühner shaker”, Kühner AG, Birsfelden, Switzerland), and the cells were incubated for 3 hours at 37° C. in a 5% CO2 atmosphere under shaking at 180 rpm. After that time, 4 ml of Ex-Cell medium were added to each of the filter tubes. […] No. B5887-1G; Sigma-Aldrich Chemie GmbH, Industriestrasse 25, CH-9471 Buchs SG) was added to the corresponding tubes at the corresponding final concentrations. […] The ELISA was performed as published in prior art. In short, Goat anti-human kappa light chain IgG (Biosource) was used for coating the ELISA-plates, and with AP-conjugated goat anti-human gamma chain IgG (Biosource) the synthesized IgG1 was detected. NPP was used as a substrate for the alkaline phosphatase. Absorption was measured at 405 nm against 490 nm using a microplate reader (SPECTRAmaxTM340; Molecular Devices, Palo Alto, Calif., USA).

HEK293E cells [4] = test: Combination with IDMTs, IgG batch yield by ELISA (Example 6); format: cell-based, Human; conditions: no addition = 100%, day 5
Protocol: 10 million suspension-adapted HEK293E cells were resuspended in 0.5 ml of Ex-Cell 293 HEK 293 serum-free medium with 4 mmol/l L-glutamine (Cat. No. 14571C-[…]; Lot No. 6A0093; SAFC Biosciences, Lenexa, Kans., USA, “Ex-Cell” medium; note: “Ex-Cell” medium-as used herein-refers to a medium comprising 4 mmol/l L-glutamine) in a 50-ml filter tube each (TPP AG, Trasadingen, Switzerland; Cat. No. 87050, Lot 20050174). In a separate set, 10 million suspension-adapted CHO DG44 cells were resuspended in 0.5 ml of ProCHO5 serum-free medium with 4 mmol/[…] hypoxanthine and 0.194 g/l thymidine (BioWhittaker (Lonza), Belgium; Cat. No. BE12-[…]; Lot No. 7MB0040; “ProCHO5” medium; note: “ProCHO5” medium-as used herein-refers to a medium comprising 4 mmol/[…] hypoxanthine and 0.194 g/l thymidine) in a 50-ml filter tube each (TPP AG, Trasadingen, Switzerland; Cat. No. 87050, Lot 20050174). Then 12.5 μg plasmid DNA at a concentration of 1 μg/μl was added in each tube with the following composition 50% (6.25 μg) p-LC (SEQ ID NO: 1) 50% (6.25 μg) p-HC (SEQ ID NO: 3). Plasmid p-LC comprises the genetic information for the production of the light chain of an IgG antibody, plasmid p-HC comprises the genetic information for the production of the heavy chain of an IgG antibody. The particular vector constructs used in the present invention can also be obtained from the inventors. The inventors can be contacted via e-mail at […]. […] In short, Goat anti-human kappa light chain IgG (Biosource) was used for coating the ELISA-plates, and with AP-conjugated goat anti-human gamma chain IgG (Biosource) the synthesized IgG1 was detected. […] Absorption was measured at 405 nm against 490 nm using a microplate reader (SPECTRAmaxTM340; Molecular Devices, Palo Alto, Calif., USA).

CHO DG44 cells [5] = test: as above; format: cell-based, Chinese Hamster; conditions: day 5; for Fold increase in batch yield over control: no addition = 100%; for interaction with VPA in increasing batch yield: CHO cells
Protocol: 10 million suspension-adapted HEK293E cells were resuspended in 0.5 ml of Ex-Cell 293 HEK 293 serum-free medium with 4 mmol/l L-glutamine (Cat. No. 14571C-[…]; Lot No. 6A0093; SAFC Biosciences, Lenexa, Kans., USA, “Ex-Cell” medium; note: “Ex-Cell” medium-as used herein-refers to a medium comprising 4 mmol/l L-glutamine) in a 50-ml filter tube each (TPP AG, Trasadingen, Switzerland; Cat. No. 87050, Lot 20050174). In a separate set, 10 million suspension-adapted CHO DG44 cells were resuspended in 0.5 ml of ProCHO5 serum-free medium with 4 mmol/[…] hypoxanthine and 0.194 g/l thymidine (BioWhittaker (Lonza), Belgium; Cat. No. BE12-[…]; Lot No. 7MB0040; “ProCHO5” medium; note: “ProCHO5” medium-as used herein-refers to a medium comprising 4 mmol/[…] hypoxanthine and 0.194 g/l thymidine) in a 50-ml filter tube each (TPP AG, Trasadingen, Switzerland; Cat. No. 87050, Lot 20050174). Then 12.5 μg plasmid DNA at a concentration of 1 μg/μl was added in each tube with the following composition 50% (6.25 μg) p-LC (SEQ ID NO: 1) 50% (6.25 μg) p-HC (SEQ ID NO: 3). Plasmid p-LC comprises the genetic information for the production of the light chain of an IgG antibody, plasmid p-HC comprises the genetic information for the production of the heavy chain of an IgG antibody. The particular vector constructs used in the present invention can also be obtained from the inventors. The inventors can be contacted via e-mail at […]. Moreover, commercial services do exist that produce any desired nucleotide sequence even comprising several kilobase pairs including complete expression cassettes in plasmid backgrounds (e.g., Invitrogen, Carlsbad, USA; Geneart, Germany.) Thus, providing the genetic sequence information of the plasmids should enable one of ordinary skill in the art to order the plasmids of the present invention at one of the commercial services listed. After shortly mixing the DNA with the cells by gentle shaking, 25 μg of 25-kd linear polyethyleneimine (“PEI”; Polysciences, Eppelheim, Germany; [2]) were added at a concentration of 1 μg/μl to each of the tubes. After shortly mixing by gentle shaking, the filter tubes containing the cells together with the DNA and PEI were transferred into an orbital shaker (Kühner Shaker Cabinet ISF-4-W, “Kühner shaker”, Kühner AG, Birsfelden, Switzerland), and the cells were incubated for 4 hours at 37° C. in a 5% CO2 atmosphere under shaking at 180 rpm. After that time, 4.5 ml of Ex-Cell medium were added to each of the filter tubes containing HEK 293 cells and 4.5 ml of Pro-CHO5 were added to each of the filter tubes containing CHO DG44 cells. Then, valproic acid was added to each of the tubes at the corresponding final concentration. In addition, the following chemicals were added to the corresponding tubes at a final concentration of: […] Azacytidine was purchased from Sigma-Aldrich Chemie GmbH, Industriestrasse 25, CH-9471 Buchs SG, Catalog Number A1287-1 VL. RG108 was purchased from Sigma-Aldrich Chemie GmbH, Industriestrasse 25, CH-9471 Buchs SG, Catalog Number R8279-10MG. The cells then were returned into the Kuhner shaker and incubated at 37° C. in a 5% CO2 atmosphere under shaking at 180 rpm. […] In short, Goat anti-human kappa light chain IgG (Biosource) was used for coating the ELISA-plates, and with AP-conjugated goat anti-human gamma chain IgG (Biosource) the synthesized IgG1 was detected. […] Absorption was measured at 405 nm against 490 nm using a microplate reader (SPECTRAmaxTM340; Molecular Devices, Palo Alto, Calif., USA).

CCCC(=O)[O-].[Na+] [sodium butyrate]
Batch titer increase at 31° C. (HEK293E cells [1]): 4.8 ± 0.4 | Batch titer increase at 37° C. (HEK293E cells [1]): 4.8 ± 0.4 | Batch titer increase at 31° C. (CHO DG44 cells [2]): 1.3 ± 0.1 | Batch titer increase at 37° C. (CHO DG44 cells [2]): 1.9 ± 0.1 | Batch titer (HEK293E cells [3]; 3 mmol/l sodium butyrate, IgG with p18 and p21, day 14 after transfection): 528 ± 42 mg/L | Fold increase over control (HEK293E cells [3]; 3 mmol/l sodium butyrate, day 14 after transfection): 7.2 fold | optimal concentration (HEK293E cells [3]; in combination with HEK293E cells): 3 mmol/L

Nc1ncn([C@@H]2O[C@H](CO)[C@@H](O)[C@H]2O)c(=O)n1 [Azacytidine]
Fold increase in batch yield over control (HEK293E cells [4]; Azacytidine 6 μmol/l): 160% ± 15% | Fold increase in batch yield over control (CHO DG44 cells [5]; Azacytidine 4 μmol/l): 160% ± 10% | interaction with VPA in increasing batch yield (CHO DG44 cells [5]): act synergistically together with VPA

O=C(O)C(Cc1c[nH]c2ccccc12)N1C(=O)c2ccccc2C1=O (stereo not shown) [RG108]
Fold increase in batch yield over control (HEK293E cells [4]; RG108 8 μmol/l): 150% ± 20% | interaction with VPA in increasing batch yield (CHO DG44 cells [5]): act synergistically together with VPA | Fold increase in batch yield over control (CHO DG44 cells [5]; RG108 60 μmol/l): 170% ± 15%
